Experimental data published in patent US20240124464A1, “SUBSTITUTED FUSED BICYCLIC COMPOUND AS KINASE INHIBITOR AND USE THEREOF” (IMPACT THERAPEUTICS (SHANGHAI), INC, priority 2020, published 2024).
Substitutions are numbered along the chain they refer to.

How the values were obtained:
[1] = biological target: T1, NUAK1 (mutation from Ala to Thr at position 195) (Homo sapiens, UniProt O60285, A195T); conditions: cited from earlier work
T1 sequence (O60285 1-661 A195T): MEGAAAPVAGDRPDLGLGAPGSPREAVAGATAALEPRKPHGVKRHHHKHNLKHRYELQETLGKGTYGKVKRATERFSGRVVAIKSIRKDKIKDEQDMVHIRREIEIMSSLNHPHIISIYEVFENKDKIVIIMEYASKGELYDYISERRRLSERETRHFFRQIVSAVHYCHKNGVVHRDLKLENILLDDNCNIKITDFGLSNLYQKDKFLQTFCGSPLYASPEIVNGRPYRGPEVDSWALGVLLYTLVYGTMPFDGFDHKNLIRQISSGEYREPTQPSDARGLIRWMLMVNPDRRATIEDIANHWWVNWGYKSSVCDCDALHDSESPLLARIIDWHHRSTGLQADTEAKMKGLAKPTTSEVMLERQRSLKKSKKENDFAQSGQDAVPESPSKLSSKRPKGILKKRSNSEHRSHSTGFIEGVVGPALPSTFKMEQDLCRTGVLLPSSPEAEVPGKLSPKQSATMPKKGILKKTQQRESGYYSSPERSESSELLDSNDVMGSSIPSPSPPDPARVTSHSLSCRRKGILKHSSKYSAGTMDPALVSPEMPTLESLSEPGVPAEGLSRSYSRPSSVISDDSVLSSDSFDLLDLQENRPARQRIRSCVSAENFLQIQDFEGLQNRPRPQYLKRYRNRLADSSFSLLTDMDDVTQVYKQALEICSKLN

[2] = biological target: T2, NUAK1 (Homo sapiens, UniProt O60285); conditions: cited from earlier work
T2 sequence (O60285 1-661): T1 sequence (O60285 1-661 A195T) with T195A

[3] = test system: MEF cells; conditions: compared with shRNA knockdown of NUAK1; cited from earlier work
[4] = test system: U2OS cell; conditions: 3D invasion assay, compared with NUAK1 knockout; cited from earlier work
[5] = test system: HEC-1-B human endometrial cancer cells; assay: CTG (CellTiter-Glo) proliferation assay on HEC-1-B cells, 7 days; format: cell-based; conditions: 168 h, 7 days incubation, read-out: IC50, inhibitory effect on proliferation of Hec-1B cells
Procedure: CTG Assay to Evaluate the Inhibitory Effect of Compounds on HEC-1-B Human Endometrial Cancer Cells
Human endometrial cancer HEC-1-B cells were resuscitated and cultured in complete medium (MEM medium+10% FBS). When reaching about 80% confluence, the cells were gently blown away from the bottom of the culture dish with a 1 mL pipette. The cells were collected and centrifuged at 500 rpm for 3 min. The supernatant was discarded and the cell pellet was resuspend in fresh medium. Cells were counted to determine cell density and seeded into 96-well plates at a density of 1000 cells per well and incubated overnight at 37° C. in a 5% CO2 incubator. In the next day, the compounds in storage solution was serially diluted with DMSO at a ratio of 1:3 for a total of 9 concentrations. Two μL of each serially diluted solution was added to 98 μL of cell culture medium ([…]), while DMSO was mixed with culture medium similarly to be served as control. The compound dilutions were shaken and mixed. The cell culture plate with cells was removed from CO2 incubator, the culture medium was aspirated from each well, 135 μL of fresh medium was added to each well followed with 15 μL of the compound dilutions. The plates were incubated at 37° C. for 7 days in a 5% CO2 incubator. One hundred μL CellTiter-Glo reagent was added to each well and the plate was vortexed for 2 min and incubated for 10 min to fully lyse the cells. The chemiluminescence values were read using a plate reader.
The chemiluminescence values were plotted against compound concentrations to calculate the inhibitory activity of each compound on cell proliferation Cell inhibition rate (%)=(chemiluminescence value tested compound−chemiluminescence value DMSO control)/(chemiluminescence value medium control−chemiluminescence valueDMSO control)×100%.
A nonlinear S-curve regression was fitted using XLFit software to fit the data to derive a dose-effect curve, from which the IC50 values were calculated. The curve equation was Y=Bottom+(Top-Bottom)/(1+10{acute over ( )}((LogIC50-X)×slope)), where Y is the cellular inhibition rate, X is the compound concentration, Bottom refers to the lowest inhibition rate, and Top refers to the highest inhibition rate.
Table 3 summarizes the inhibitory effects (IC50) of the compounds on the proliferation of Hec-1B cells, Where ++++ indicates 100 nM<IC50≤500 nM; +++ indicates 500 nM<IC50≤1 μM; ++ indicates 1 μM<IC50≤10 μM; + indicates IC50>10 μM.

[6] = biological target: T3, NUAK1(h) enzyme (Homo sapiens, UniProt O60285); assay: In vitro NUAK1 enzymatic assay (Eurofins Discovery, [γ-33P]-ATP filter assay); format: biochemical; conditions: 45 μM ATP, 40 min, room temperature; read-out: IC50, inhibitory effect on NUAK1 enzyme activity
T3 construct: purchased Eurofins Discovery
T3 sequence (O60285 1-661): T1 sequence (O60285 1-661 A195T) with T195A
Procedure: In Vitro Assay to Determine the Inhibitory Effect of Compounds in the Patent on NUAK1 Enzymatic Activity
The in vitro NUAK1 enzymatic assay was carried out at Eurofins Discovery to evaluate the inhibitory effect of the compounds presented in the invention. The assay protocol is as follow: the compound to be tested was mixed with NUAK1(h) enzyme and 300 μM […] substrate in 8 mM MOPS (pH 7.0) buffer containing 0.2 mM EDTA and incubated at room temperature. A Mg/ATP mixture containing 10 mM magnesium acetate and 45 μM [y-33P]-ATP was added to start the reaction. After incubation for 40 min at room temperature, the reaction was terminated by adding 0.5% phosphoric acid. Then, 10 μL of the reaction mix was spotted onto a P30 filter paper followed with four times of wash with 0.425% phosphoric acid solution (4 min each time), and one time wash with methanol. The filter paper was air-dried and counted in a liquid scintillation counter. The values obtained were plotted against the drug concentration and the IC50 was calculated.
Table 1 summarizes the inhibitory effect (IC50) of compounds tested on the NUAK1 enzyme activity in the present invention. ++++ indicates IC50≤10 nM; […]; ++ indicates 100 nM<IC50≤1 μM; + indicates IC50>1 μM.

[7] = biological target: T4, NUAK2(h) enzyme (Homo sapiens, UniProt Q9H093); assay: In vitro NUAK2 enzymatic assay (Eurofins Discovery, [γ-33P]-ATP filter assay); format: biochemical; conditions: 45 μM ATP, 40 min, room temperature; read-out: IC50, inhibitory effect on NUAK2 enzyme activity
T4 construct: purchased Eurofins Discovery
T4 sequence (Q9H093 1-628): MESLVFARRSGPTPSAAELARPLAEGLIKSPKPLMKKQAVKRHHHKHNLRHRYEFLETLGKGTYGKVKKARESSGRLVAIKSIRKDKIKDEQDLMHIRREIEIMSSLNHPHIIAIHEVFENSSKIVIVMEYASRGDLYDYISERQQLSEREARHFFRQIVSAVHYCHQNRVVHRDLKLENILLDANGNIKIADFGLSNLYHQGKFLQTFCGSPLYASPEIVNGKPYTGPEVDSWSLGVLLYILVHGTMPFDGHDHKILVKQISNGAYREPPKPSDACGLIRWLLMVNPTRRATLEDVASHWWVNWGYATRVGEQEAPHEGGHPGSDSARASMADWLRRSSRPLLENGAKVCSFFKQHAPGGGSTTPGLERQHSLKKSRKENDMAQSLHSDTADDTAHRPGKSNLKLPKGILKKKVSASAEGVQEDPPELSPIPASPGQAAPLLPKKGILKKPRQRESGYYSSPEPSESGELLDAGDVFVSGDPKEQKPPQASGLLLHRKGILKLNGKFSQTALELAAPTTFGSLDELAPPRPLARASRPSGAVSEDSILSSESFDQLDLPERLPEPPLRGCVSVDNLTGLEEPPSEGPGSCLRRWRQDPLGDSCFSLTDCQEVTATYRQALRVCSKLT
Procedure: In Vitro Assay to Determine the Inhibitory Effect of Compounds in the Patent on NUAK2 Enzymatic Activity
The in vitro NUAK2 enzymatic assay was carried out at Eurofins Discovery to evaluate the inhibitory effect of the compounds presented in the invention. The assay protocol is as follow: the compound to be tested was mixed with NUAK2(h) enzyme and 300 […] substrate in 8 mM MOPS (pH 7.0) buffer containing 0.2 mM EDTA. A Mg/ATP mixture containing 10 mM magnesium acetate and 45 μM [γ-33P]-ATP was added to start the reaction. After incubation for 40 min at room temperature, the reaction was terminated by adding 0.5% phosphoric acid. Then 10 μL of the reaction mix was spotted onto a P30 filter paper. The filter paper was washed four times with 0.425% phosphoric acid with 4 min for each wash, and one time with methanol. The filter paper was air-dried and counted in a liquid scintillation counter. The values obtained were plotted against the drug concentration and the IC50 was calculated.
Table 1 summarizes the inhibitory effect (IC50) of compounds on the NUAK2 enzyme activity in the present invention. ++++ indicates IC50≤10 nM; +++ indicates 10 nM<IC50≤100 nM; ++ indicates 100 nM<IC50≤1 μM; + indicates IC50>1 μM.

| IC50 [5] [µM] | IC50 [6] [µM] | IC50 [7] [µM] | Compound | resistance of NUAK1 Ala195Thr mutant to the inhibitor [1] [fold] | inhibition of phosphorylation of MYPT1 by NUAK1 at Ser445 [2] | inhibition on proliferation against MEF cells [3] | inhibition of U2OS cell invasion [4] |
| --- | --- | --- | --- | --- | --- | --- | --- |
|  |  |  | Cc1nc(Nc2cnn(C3CCNCC3)c2)nc2c1N(C)C(=O)c1cc3ccccc3cc1N2C [HTH-01-015] | 50 | inhibit the phosphorylation of MYPT1 | comparable to that of shRNA knockdown of NUAK1 | inhibited U2OS cell invasion similarly to NUAK1 knockout did |
|  |  |  | CCC(=O)Nc1cccc(Oc2nc(Nc3ccc(N4CCN(C)CC4)cc3OC)ncc2Cl)c1 [WZ4003] | 50 | inhibit the phosphorylation of MYPT1 | comparable to that of shRNA knockdown of NUAK1 | inhibited U2OS cell invasion similarly to NUAK1 knockout did |
| > 10 | ≤ 0.01 | ≤ 0.01 | COc1cc(N2CCN(C)CC2)ccc1Nc1ncc2ccc(=O)n(C3CCCCC3)c2n1 [Example 22, 8-cyclohexyl-2-((2-methoxy-4-(4-methylpiperazin-1-yl)phenyl)amino)pyrido[2,3-d]pyrimidin-7(8H)-one] |  |  |  |  |
| 0.5 to 1 | 0.1 to 1 | 0.01 to 0.1 | COc1cc(N2CCN(C)CC2)ccc1Nc1ncc2cnc(=O)n(C3CCCCC3)c2n1 [Example 6, 1-cyclohexyl-7-((2-methoxy-4-(4-methylpiperazin-1-yl)phenyl)amino)pyrimido[4,5-d]pyrimidin-2(1H)-one] |  |  |  |  |
| 1 to 10 | 0.01 to 0.1 | 0.01 to 0.1 | CN1CCN(c2ccc(Nc3ncc4c(n3)N(C3CCCC3)C(=O)NC4)c(Br)c2)CC1 [Example 32, 7-((2-bromo-4-(4-methylpiperazin-1-yl)phenyl)amino)-1-cyclopentyl-3,4-dihydropyrimido[4,5-d]pyrimidin-2(1H)-one] |  |  |  |  |
